Patent US7241803B2, “Compounds for inhibition of HIV infection by blocking HIV entry” (New York Blood Center, priority 2002, dated 2007)

Columns and labels:
CXCR4 = target: T1, CXCR4 (Homo sapiens, UniProt P61073); assay: inhibition of anti-CXCR4 antibody 12G5 binding to CXCR4-expressing cells, cell-based ELISA; details: 25 μM
T1 construct: expressed in transfected cells; host or cells: U373-MAGI-CXCR4CEM cells
Procedure: Inhibition of anti-CXCR4 antibody binding to CXCR4-expressing cells. The inhibition of the binding of anti-CXCR4 antibody to CXCR4-expressing cells was determined using a cell-based ELISA as described previously (52). Briefly, U373-MAGI-CXCR4CEM cells (1×10^5/well) which express CXCR4 molecules were cultured in a 96-well plate at 37° C. overnight. The cells were fixed with 5% formaldehyde at room temperature for 15 min and washed with PBS-T. The cells were incubated with anti-CXCR4 mAb 12G5 at 37° C. for 1 h in the presence or absence of compounds tested. Isotype IgG2a was used as a control.

N36/C34 mixture = N36/C34 mixture (Human immunodeficiency virus type 1 group M subtype B, UniProt P04578); details: 100 μg/ml
Procedure: Circular dichroism (CD) spectroscopy. A test compound at graded concentrations was incubated with N36 in phosphate buffer (pH 7.2) at 37° C. for 30 min before addition of C34 in the same buffer at equimolar concentration. After incubation at 37° C. for 30 min, the mixture was cooled down and CD spectra of the mixture were measured on the J-715 CD spectrometer equipped with a thermoelectric temperature controller (Jasco, Japan). The instrument was calibrated using a two point calibration method with (+)-10-camphorsulfonic acid. The wavelength dependence of molar ellipticity (θ) was monitored at 0° C. by 5 scans in 1 nm increments with a sampling time of 10 seconds as previously described (12, 51). The CD signal at 222 nm was measured as a function of temperature. Thermal melts were performed in 2° C. steps, with 2 min of equilibration at each temperature and an acquisition time of 0.5 min. The midpoint of the thermal unfolding transition (Tm) was estimated from the maximum of the first derivative of the CD signal at 222 nm (1).

HIV-1 RF (clade B, X4) = assay: infection by laboratory-adapted HIV-1 strain, p24 production; assay type: cell-based
Procedure: Assessment of anti-HIV-1 infectivity. The inhibitory activity of compounds on infection by laboratory-adapted HIV-1 strains was determined as previously described (18). In brief, 1×10^4 MT-2 cells were infected with HIV-1 at 100 TCID50 (50% tissue culture infective dose) in 200 μl of RPMI 1640 medium containing 10% FBS in the presence or absence of compounds at graded concentrations overnight. For the time-of-addition assay, compounds were added at various time post-infection. Then the culture supernatants were removed and fresh media were added. On the fourth day post-infection, 100 μl of culture supernatants were collected from each well, mixed with equal volumes of 5% Triton X-100 and assayed for p24 antigen, which was quantitated by ELISA (51). Briefly, the wells of polystyrene plates (Immulon 1B, Dynex Technology, Chantilly, Va.) were coated with HIV immunoglobulin (HIVIG), which was prepared from plasma of HIV-seropositive donors with high neutralizing titers against HIV-1IIIB as previously described (44) in 0.085 M carbonate-bicarbonate buffer (pH 9.6) at 4° C. overnight, followed by washes with PBS-T buffer (0.01M PBS containing 0.05% Tween-20) and blocking with PBS containing 1% dry fat-free milk (Bio-Rad Inc., Hercules, Calif.). Virus lysates were added to the wells and incubated at 37° C. for 1 h. […] Absorbance at 450 nm was recorded in an ELISA reader (Ultra 384, Tecan). […]

gp120-CD4 binding = target: T2, gp120-CD4 binding (Human immunodeficiency virus type 1 group M subtype B, UniProt P03375); design: species or system HIV-1; details: 10 μg/ml
T2 construct: purchased Immunodiagnostics, Woburn, Mass; (gp120); Genentech Inc., South San Francisco, Calif; (sCD4)
Procedure: Inhibition of gp120 binding to CD4. Wells of polystyrene plates was coated with 100 μl of sheep anti-gp120 antibody D7324 (Cliniqa, Fallbrook, Calif.) at 2 μg/ml in carbonate buffer (pH 9.6) at 4° C. overnight and blocked with 1% dry fat-free milk in PBS at 37° C. for 1 h. One hundred microliters of recombinant gp120 molecule (Immunodiagnostics, Woburn, Mass.) at 0.5 μg/ml in PBS was added and incubated at 37° C. for 1 h, followed by three washes with PBS-T. Soluble CD4 (sCD4) at 0.25 μg/ml was added in the presence of a compound (25 μM) and incubated at 37° C. for 1 h. After three washes, rabbit anti-sCD4 IgG (0.25 μg/ml in PBS, 100 μl/well) was added and incubated at 37° C. for 1 h. Binding of rabbit anti-sCD4 IgG was determined by sequential addition of biotinylated goat-anti-rabbit IgG, SA-HRP, and TMB. After the reactions were terminated, absorbance at 450 nm was recorded in an ELISA reader (Tecan).
HIV-1 envelope glycoprotein gp120 was captured by the anti-gp120 antibody coated onto wells of polystyrene plates. […] After extensive washes, CD4 molecule bound to gp120 was quantitated by ELISA using anti-CD4 antibody.

[1] = system: MT-2 & H9/HIV-1IIIB (clade B, X4); assay: cell-cell fusion, dye transfer assay; assay type: cell-based; details: MT-2 & H9/HIV-1IIIB (clade B, X4)
Procedure: Inhibition of cell-cell fusion. A dye transfer assay was used for detection of HIV-1 mediated cell fusion as previously described (21, 24, 34). H9/HIV-1IIIB cells were labeled with a fluorescent reagent, Calcein-AM (Molecular Probes, Inc., Eugene, Oreg.) and then incubated with MT-2 cells (ratio=1:5) in 96-well plates at 37° C. for 2 hrs in the presence or absence of compounds tested. The fused and unfused Cacein-labeled HIV-1-infected cells were counted under an inverted fluorescence microscope (Zeiss, Germany) with an eyepiece micrometer disc. The percentage of inhibition of cell fusion and the IC50 values were calculated as previously described (21).

[2] = system: gp41 pocket presented on IQN17
Procedure: Inhibition of a biotinylated D-peptide binding to IQN17. For measuring the binding of a D-peptide, D10-p5-2k to IQN17, an ELISA was established. In brief, wells of a 96-well polystyrene plate were coated with IgG (10 μg/ml) purified from rabbit antisera directed against IQN17. The peptide IQN17 (10 μM) was incubated with a compound at graded concentrations at 37° C. for 30 min before addition of the peptide D10-p5-2K-biotin (5 μM). After incubation at 37° C. for 30 min, the mixture was added to the plate, followed by incubation at 37° C. for 30 min. After extensive washes, D10-p5-2K-biotin bound to the IQN17 was quantitated by addition of SA-HRP and TMB sequentially. The absorbance at 450 nm was read using an ELISA reader (Tecan). The percentage of inhibition by the compounds was calculated as described above.

T1 sequence (P61073 whole entry): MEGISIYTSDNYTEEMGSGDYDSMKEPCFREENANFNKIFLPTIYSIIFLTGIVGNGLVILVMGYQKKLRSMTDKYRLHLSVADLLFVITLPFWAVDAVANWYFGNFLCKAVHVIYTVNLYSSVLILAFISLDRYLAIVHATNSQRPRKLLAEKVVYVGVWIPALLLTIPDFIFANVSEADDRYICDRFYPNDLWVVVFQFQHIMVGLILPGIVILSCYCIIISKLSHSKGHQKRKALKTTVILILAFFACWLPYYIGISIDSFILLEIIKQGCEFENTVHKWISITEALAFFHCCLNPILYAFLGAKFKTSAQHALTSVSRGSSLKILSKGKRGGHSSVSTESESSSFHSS
Sequence of N36/C34 mixture (P04578 546-581): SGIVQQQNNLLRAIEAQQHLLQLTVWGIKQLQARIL

Cc1ccc(C)n1-c1ccc(C(=O)O)c(O)c1 [NB-2]
inhibition of 12G5 binding to U373-MAGI-CXCR4CEM cells (CXCR4): no inhibitory activity | α-helicity of the N36/C34 mixture (N36/C34 mixture): significantly disrupted | IC50 (μg/ml) for inhibition of p24 production (HIV-1 RF (clade B, X4)): 0.45 ± 0.04 µg/mL | inhibition of gp120-CD4 binding (gp120-CD4 binding): did not significantly inhibited | IC50 (μg/ml) for inhibition of cell-cell fusion [1]: 1.53 ± 0.17 µg/mL | inhibition of biotinylated D10-p5-2K binding to IQN17 [2]: significantly inhibited

O=C(O)c1cc(-n2cccc2)ccc1Cl [NB-64]
inhibition of 12G5 binding to U373-MAGI-CXCR4CEM cells (CXCR4): no inhibitory activity | α-helicity of the N36/C34 mixture (N36/C34 mixture): significantly disrupted | IC50 (μg/ml) for inhibition of p24 production (HIV-1 RF (clade B, X4)): 0.96 ± 0.03 µg/mL | inhibition of gp120-CD4 binding (gp120-CD4 binding): did not significantly inhibited | IC50 (μg/ml) for inhibition of cell-cell fusion [1]: 2.02 ± 0.19 µg/mL | inhibition of biotinylated D10-p5-2K binding to IQN17 [2]: significantly inhibited
